Measurements published in patent publication US20070173462A1, “Treatment of diseases associated with the use of antibiotics” (Optimer Pharmaceuticals, Inc., priority 2004, published 2007).
Values after ≈ are worked out from the molar mass of the structure shown.

Tests used:
Format in all cases: cell-based
Streptococcus sp. [1] = test: MIC, ATCC laboratory strains (NCCLS guidelines); details: n=5, in µg/mL
Description: The activity of Compound I was tested against laboratory strains of different species of bacteria using NCCLS antimicrobial susceptibility testing guidelines. […] Including MRSA and Enterococcus sp. Including VRE (Table. 2).

Bacteroides fragilis = test: MIC, clinical isolates (Table 3); details: n=69
From the text: (§1) Compound I was additionally tested against anaerobic clinical isolates and against aerobic bacteria. […] The compound was also active against clinical strains of Staphylococcus sp. and Enterococcus sp.

Enterobacteiaceae = test: MIC, clinical isolates (Table 3); details: n=28
From the text: as §1

Enterococcus sp. = test: MIC, clinical isolates (Table 3)
From the text: as §1

Eubacterium sp. = test: MIC, clinical isolates (Table 3); details: n=26
From the text: as §1

Lactobacillus sp. = test: MIC, clinical isolates (Table 3); details: n=8, in µg/mL
From the text: as §1

Prevotella sp. = test: MIC, clinical isolates (Table 3); details: n=35
From the text: as §1

Propionibacterium sp. = test: MIC, clinical isolates (Table 3); details: n=16
From the text: as §1

Pseudomonas sp. = test: MIC, clinical isolates (Table 3); details: n=15
From the text: as §1

Staphylococcus sp. = test: MIC, clinical isolates (Table 3)
From the text: as §1

Streptococcus sp. [2] = test: MIC, clinical isolates (Table 3); details: n=10
From the text: as §1

C. difficile = test: microbe, parasite or virus in culture; details: clinical isolates, n=23
C. paraputrificum = test: microbe, parasite or virus in culture; details: clinical isolates, n=10
C. perfringens = test: microbe, parasite or virus in culture
C. ramosum = test: microbe, parasite or virus in culture; details: Thomasclavelia ramosa; clinical isolates, n=10
Other Clostridium sp. = test: microbe, parasite or virus in culture; details: Clostridium; clinical isolates, n=11
[3] = system: Bacteroides fragilis group; test: microbe, parasite or virus in culture; details: Bacteroides fragilis; clinical gastrointestinal isolates, n=54
Veillonella sp. = test: microbe, parasite or virus in culture; details: clinical gastrointestinal isolates, n=10
[4] = system: Other anaerobic Gram negative rods; test: organism not typed; details: clinical gastrointestinal isolates, n=51
Streptococcus sp. [5] = test: microbe, parasite or virus in culture; details: clinical gastrointestinal isolates, n=9
Klebsiella sp. = test: microbe, parasite or virus in culture; details: clinical gastrointestinal isolates, n=10
Pseudomonas aeruginosa = test: microbe, parasite or virus in culture; details: clinical gastrointestinal isolates, n=10
Stephylococcus sp. = test: organism not typed; details: clinical gastrointestinal isolates, n=19
[6] = system: C. difficile, C. perfringens and C. sordellii; test: organism not typed

CCc1c(Cl)c(O)c(Cl)c(O)c1C(=O)O[C@H]1[C@H](O)[C@H](OC)[C@H](OC/C2=C\C=C\C[C@H](O)/C(C)=C/[C@H](CC)C(O[C@@H]3OC(C)(C)[C@@H](OC(=O)C(C)C)[C@H](O)[C@@H]3O)/C(C)=C/C(C)=C/C[C@@H](C(C)O)OC2=O)O[C@@H]1C (some centres unmarked) [Compound I]
Range (MIC) (Streptococcus sp. [1]): 16-32 | MIC50 (Bacteroides fragilis; Bacteroides fragilis): ≥ 128 µg/mL | Range (MIC) (Bacteroides fragilis): ≧128^ | MIC50 (Enterobacteiaceae): > 64 µg/mL | Range (MIC) (Enterobacteiaceae): > 64 µg/mL | MIC50 (Enterococcus sp.; Enterococcus, clinical isolates, n=8): 4 µg/mL (≈ 3.78 µM) | Range (MIC) (Enterococcus sp.; clinical isolates, n=8, in µg/mL): 1-8 | activity (in words) (Enterococcus sp.; clinical strains): active | MIC50 (Eubacterium sp.): 32 µg/mL (≈ 30.2 µM) | Range (MIC) (Lactobacillus sp.): 8-32 | MIC50 (Prevotella sp.): ≥ 128 µg/mL | MIC50 (Propionibacterium sp.): 4 µg/mL (≈ 3.78 µM) | MIC50 (Pseudomonas sp.; Pseudomonas): > 64 µg/mL | Range (MIC) (Pseudomonas sp.): > 64 µg/mL | MIC50 (Staphylococcus sp.; Staphylococcus, clinical isolates, n=10): 2 µg/mL (≈ 1.89 µM) | Range (MIC) (Staphylococcus sp.; clinical isolates, n=10, in µg/mL): 1-8 | activity (in words) (Staphylococcus sp.; clinical strains): active | MIC50 (Streptococcus sp. [2]): 16 µg/mL (≈ 15.1 µM) | MIC50 (C. difficile; Clostridioides difficile): 0.12 µg/mL (≈ 0.113 µM) | MIC90 (C. difficile; Clostridioides difficile): 0.25 µg/mL (≈ 0.236 µM) | Range (MIC) (C. difficile): 0.062 to 2 µg/mL | MIC50 (C. paraputrificum; Clostridium paraputrificum): 8 µg/mL (≈ 7.56 µM) | MIC90 (C. paraputrificum; Clostridium paraputrificum): 32 µg/mL (≈ 30.2 µM) | Range (MIC) (C. paraputrificum): 0.062-64 ^ μg/mL | MIC50 (C. perfringens; Clostridium perfringens): 0.062 µg/mL (≈ 0.0586 µM) | MIC90 (C. perfringens; Clostridium perfringens): 0.062 µg/mL (≈ 0.0586 µM) | Range (MIC) (C. perfringens; clinical isolates, n=14): 0.062 µg/mL | MIC50 (C. ramosum): > 1020 µg/mL | MIC90 (C. ramosum): > 1020 µg/mL | MIC50 (Other Clostridium sp.): 32 µg/mL (≈ 30.2 µM) | MIC90 (Other Clostridium sp.): 1020 µg/mL (≈ 968 µM) | MIC50 [3]: 512 µg/mL (≈ 484 µM) | MIC90 [3]: > 1020 µg/mL | MIC50 (Veillonella sp.; Veillonella): 32 µg/mL (≈ 30.2 µM) | MIC90 (Veillonella sp.; Veillonella): 128 µg/mL (≈ 121 µM) | Range (MIC) (Veillonella sp.): 16 to 128 µg/mL | MIC50 [4]: 1020 µg/mL (≈ 968 µM) | MIC90 [4]: > 1020 µg/mL | MIC50 (Streptococcus sp. [5]; Streptococcus): 32 µg/mL (≈ 30.2 µM) | MIC90 (Streptococcus sp. [5]; Streptococcus): 128 µg/mL (≈ 121 µM) | Range (MIC) (Streptococcus sp. [5]): 16 to 128 µg/mL | MIC50 (Klebsiella sp.; Klebsiella): > 256 µg/mL | MIC90 (Klebsiella sp.; Klebsiella): > 256 µg/mL | Range (MIC) (Klebsiella sp.): >256 µg/mL | MIC50 (Pseudomonas aeruginosa): > 256 µg/mL | MIC90 (Pseudomonas aeruginosa): > 256 µg/mL | MIC50 (Stephylococcus sp.): 0.5 µg/mL (≈ 0.473 µM) | MIC90 (Stephylococcus sp.): 1 µg/mL (≈ 0.945 µM) | Range (MIC) (Stephylococcus sp.): 0.25-2 ^ μg/mL | MIC90 [6]: 0.062 to 0.25 µg/mL (≈ 0.0586 to 0.236 µM)
